Where two headings read alike, the source gives them in different places.
Legend:
[1] = system: Agonist, thyroid receptor (TR); set-up: method as in PubChem Bioassay AID 743066; settings: ref PubChem Bioassay AID 743066; cited from earlier work
[2] = system: Cytotoxicity, Agonist, RXR; set-up: method as in PubChem Bioassay AID 1159529; settings: ref PubChem Bioassay AID 1159529; cited from earlier work
Angiogenesis model = system: Angiogenesis model; set-up: method as in PubChem Bioassay AID 1117337; settings: ref PubChem Bioassay AID 1117337; cited from earlier work
Anticancer, Leukemia = system: Anticancer, Leukemia; set-up: method as in PubChem Bioassay AID 328; settings: ref PubChem Bioassay AID 328; cited from earlier work
Anticancer, colon = system: Anticancer, colon; set-up: method as in PubChem Bioassay AID 1834; settings: ref PubChem Bioassay AID 1834; cited from earlier work
[3] = system: Agonist, retinoic acid receptor (RAR); set-up: method as in PubChem Bioassay AID 1159553; settings: ref PubChem Bioassay AID 1159553; cited from earlier work
Anti-Inflammatory model [4] = system: Anti-Inflammatory model; set-up: method as in PubChem Bioassay AID 1267; settings: ref PubChem Bioassay AID 1267; cited from earlier work
[5] = system: Cell Cycle Modulation (counterscreen); set-up: method as in PubChem Bioassay AID 1117350; settings: ref PubChem Bioassay AID 1117350; cited from earlier work
[6] = system: Antagonist, androgen receptor (AR); set-up: method as in PubChem Bioassay AID 743035; settings: ref PubChem Bioassay AID 743035; cited from earlier work
[7] = system: Anticancer, non-Hodgkin lymphoma; set-up: method as in PubChem Bioassay AID 651568; settings: ref PubChem Bioassay AID 651568; cited from earlier work
[8] = system: ADMET, Cytochrome P450 3A4; set-up: method as in PubChem Bioassay AID 884; settings: ref PubChem Bioassay AID 884; cited from earlier work
Anti-Inflammatory model [9] = system: Anti-Inflammatory model; set-up: method as in PubChem Bioassay AID 438; settings: ref PubChem Bioassay AID 438; cited from earlier work
Anticancer, Colon Tumor = system: Anticancer, Colon Tumor; set-up: method as in PubChem Bioassay AID 771; settings: ref PubChem Bioassay AID 771; cited from earlier work
Anticancer, Melanoma = system: Anticancer, Melanoma; set-up: method as in PubChem Bioassay AID 192; settings: ref PubChem Bioassay AID 192; cited from earlier work
[10] = system: Cytotoxicity, Activators, heat shock response (counterscreen); set-up: method as in PubChem Bioassay AID 743209; settings: ref PubChem Bioassay AID 743209; cited from earlier work
[11] = system: Anti-Inflammatory model (counterscreen); set-up: method as in PubChem Bioassay AID 1318; settings: ref PubChem Bioassay AID 1318; cited from earlier work
[12] = set-up: method as in Dar et al. [63]; settings: ref Dar et al. [63]; cited from earlier work
[13] = system: 1-acylglycerol-3-phosphate O-acyltransferase ABHD5; set-up: method as in PubChem Bioassay AID 493035; settings: ref PubChem Bioassay AID 493035; cited from earlier work
[14] = system: Antagonist, NFkB Signaling Pathway; set-up: method as in PubChem Bioassay AID 624479; settings: ref PubChem Bioassay AID 624479; cited from earlier work
[15] = system: 1-acylglycerol-3-phosphate O-acyltransferase ABHD5; set-up: method as in PubChem Bioassay AID 493027; settings: ref PubChem Bioassay AID 493027; cited from earlier work
Anticancer, Lung Tumor = system: Anticancer, Lung Tumor; set-up: method as in PubChem Bioassay AID 270; settings: ref PubChem Bioassay AID 270; cited from earlier work
[16] = system: Agonist, glucocorticoid receptor (GR); set-up: method as in PubChem Bioassay AID 720719; settings: ref PubChem Bioassay AID 720719; cited from earlier work
[17] = set-up: method as in Dar et al. [63]; settings: ref Dar et al. [63]; cited from earlier work; remark: listed apart in the source
[18] = system: Salmonella choleraesuis subs. choleraesuis sorotype Typhi BM/Panama-TY2; assay: Antibacterial microdilution assay; type: cell-based
[19] = system: beta-2 adrenergic receptor; set-up: method as in PubChem Bioassay AID 504459; settings: ref PubChem Bioassay AID 504459; cited from earlier work
[20] = system: Agonist, peroxisome proliferator-activated receptor delta (PPARd); set-up: method as in PubChem Bioassay AID 743227; settings: ref PubChem Bioassay AID 743227; cited from earlier work
[21] = system: Cytotoxicity, Agonist, antioxidant response element (ARE); set-up: method as in PubChem Bioassay AID 743203; settings: ref PubChem Bioassay AID 743203; cited from earlier work
Anti-Inflammatory model [22] = system: Anti-Inflammatory model; set-up: method as in PubChem Bioassay AID 602277; settings: ref PubChem Bioassay AID 602277; cited from earlier work
[23] = system: Cytotoxicity, Antagonist, androgen receptor (AR); set-up: method as in PubChem Bioassay AID 743033; settings: ref PubChem Bioassay AID 743033; cited from earlier work
[24] = system: Agonist, glucocorticoid receptor (GR); set-up: method as in PubChem Bioassay AID 720691; settings: ref PubChem Bioassay AID 720691; cited from earlier work

COc1cc([C@@H]2c3cc4c(cc3[C@H](O)[C@H]3COC(=O)[C@H]23)OCO4)cc(OC)c1OC [Podophyllotoxin, podophyllotoxin]
Exper. Activity [1]: Inactive
Exper. Activity [2]: Inactive
Exper. Activity (Angiogenesis model): Active
Exper. Activity (Anticancer, Leukemia): Active
Exper. Activity (Anticancer, colon): Active
Exper. Activity [3]: Inactive
Exper. Activity (Anti-Inflammatory model [4]): Inactive
Exper. Activity [5]: Active
Exper. Activity [6]: Active
Exper. Activity [7]: Inactive
Exper. Activity [8]: Active
Exper. Activity (Anti-Inflammatory model [9]): Active
Exper. Activity (Anticancer, Colon Tumor): Inactive
Exper. Activity (Anticancer, Melanoma): Inactive
Exper. Activity [10]: Inactive
Exper. Activity [11]: Inactive
IC50 DPPH sequestration [12]: higher than 250 μg/mL
Exper. Activity [13]: Inactive
Exper. Activity [14]: Inactive
Exper. Activity [15]: Inactive
Exper. Activity (Anticancer, Lung Tumor): Inactive
Exper. Activity [16]: Inactive
IC50 TBARS lipid peroxidation [17]: higher than 250 μg/mL
Salmonella Typhi Mean ± SD (percentage of inhibition of microbial growth) ([18]; 250 µg/mL): No antibacterial activity
inhibition at 250 µg/mL ([18]; Salmonella enterica, read-out: Salmonella Typhi Mean ± SD (percentage of inhibition of microbial growth)): 31.6 ± 7.54%
Exper. Activity [19]: Inactive
Exper. Activity [20]: Inactive
Exper. Activity [21]: Inactive
Exper. Activity (Anti-Inflammatory model [22]): Active
Exper. Activity [23]: Inactive
Exper. Activity [24]: Inactive

Source: publication PMC6321136, “Combined In Vitro Studies and in Silico Target Fishing for the Evaluation of the Biological Activities of Diphylleia cymosa and Podophyllum hexandrum” (Molecules, 2018)
